Earlier results as cited in patent US11608532B2, “Precision medicine for treating and preventing suicidality” (Indiana University Research and Technology Corporation, priority 2017, dated 2023).
Like-named read-outs stand apart in the source and are kept apart here.

What was measured:
[1] = tested on: top male bipolar biomarkers for suicidality; settings: HTR2A, 244130_at, (I) in suicidality, male bipolars
[2] = tested on: individual top biomarkers for suicidality; settings: for TNF modulated by drug in opposite direction to suicide: direction of change in suicidality (I) DE/1, (I) AP/1
[3] = C. Top Biomarkers in Females, direction of change in suicidality I, DE/2
[4] = E. Top Biomarkers in Depression, direction of change in suicidality (I), DE/1
[5] = G. Top Biomarkers in Males with Depression, direction of change in suicidality (D), AP/2
[6] = A. Top Universal Biomarkers, direction of change in suicidality (I), DE/2
[7] = D. Top Biomarkers in Bipolar Disorder, direction of change in suicidality (I), DE/2
[8] = F. Top Biomarkers in Males with Bipolar Disorder, direction of change in suicidality (I), DE/2
[9] = biomarker BCL2 (B-cell CLL/lymphoma 2)
[10] = D. Top Biomarkers in Bipolar Disorder
[11] = B. Top Biomarkers in Males, direction of change in suicidality I, DE/2
[12] = D. Top Biomarkers in Bipolar Disorder, direction of change in suicidality (D), DE/1
[13] = biomarker HTR2A (5-hydroxytryptamine (serotonin) receptor 2A, G protein-coupled)
[14] = A. Top Universal Biomarkers, direction of change in suicidality (D), AP/1

## CN1CCCCC1CCN1c2ccccc2Sc2ccc([S+](C)[O-])cc21 (stereo not drawn) [mesoridazine]
[1]
  Drugs that Modulate the Biomarker in Opposite Direction to Suicide: mesoridazine

## CNCCC(Oc1ccc(C(F)(F)F)cc1)c1ccccc1 (stereo not drawn) [Fluoxetine]
[2]; [3]
  BDNF modulated by drug in opposite direction to suicide: Fluoxetine
[2]; E. Top Biomarkers in Depression, direction of change in suicidality (D), AP/1
  ACP1 modulated by drug in opposite direction to suicide: Fluoxetine
[2]; [4]
  BDNF modulated by drug in opposite direction to suicide: Fluoxetine
  JUN modulated by drug in opposite direction to suicide: Fluoxetine
[2]; [5]
  NTRK3 modulated by drug in opposite direction to suicide: Fluoxetine

## CCc1nn(CCCN2CCN(c3cccc(Cl)c3)CC2)c(=O)n1CCOc1ccccc1 [nefazodone]
[1]
  Drugs that Modulate the Biomarker in Opposite Direction to Suicide: nefazodone

## CN1CCc2cccc3c2[C@H]1Cc1ccc(O)c(O)c1-3 [apomorphine]
[1]
  Drugs that Modulate the Biomarker in Opposite Direction to Suicide: apomorphine

## CN(C)C(=O)N[C@H]1CC[C@H](CCN2CCN(c3cccc(Cl)c3Cl)CC2)CC1 [cariprazine]
[2]; [6]
  HTR2A modulated by drug in opposite direction to suicide: cariprazine,
[2]; [3]
  HTR2A modulated by drug in opposite direction to suicide: cariprazine,
[2]; [7]
  HTR2A modulated by drug in opposite direction to suicide: cariprazine,
[2]; [8]
  HTR2A modulated by drug in opposite direction to suicide: cariprazine,

## CN(C)CCCN1c2ccccc2CCc2ccc(Cl)cc21 [clomipramine]
[1]
  Drugs that Modulate the Biomarker in Opposite Direction to Suicide: clomipramine

## Oblimersen
[2]; [9]
  Step 6 Drugs that Modulate the Biomarker in Opposite Direction to Suicide: Oblimersen

## CCN(CC)C(=O)N[C@H]1C=C2c3cccc4[nH]cc(c34)C[C@H]2N(C)C1 [lisuride]
[1]
  Drugs that Modulate the Biomarker in Opposite Direction to Suicide: lisuride

## O=C1CCC(N2C(=O)c3ccccc3C2=O)C(=O)N1 (stereo not drawn) [thalidomide]
[2]; [10]
  TNF modulated by drug in opposite direction to suicide: thalidomide

## CC#C[C@]1(O)CC[C@H]2[C@@H]3CCC4=CC(=O)CCC4=C3[C@@H](c3ccc(N(C)C)cc3)C[C@@]21C [Mifepristone]
[2]; [3]
  BDNF modulated by drug in opposite direction to suicide: Mifepristone
[2]; [4]
  BDNF modulated by drug in opposite direction to suicide: Mifepristone

## C[C@H]1Oc2c(cccc2N2CCN(CCCc3c[nH]c4ccc(F)cc34)CC2)NC1=O [SLV-314]
[2]; [11]
  SLC6A4 modulated by drug in opposite direction to suicide: SLV-314
[2]; [12]
  SLC6A4 modulated by drug in opposite direction to suicide: SLV-314

## CC(=O)O[C@H]1C(=O)[C@@]2(C)[C@H]([C@H](OC(=O)c3ccccc3)[C@]3(O)C[C@H](OC(=O)[C@H](O)[C@@H](NC(=O)c4ccccc4)c4ccccc4)C(C)=C1C3(C)C)[C@]1(OC(C)=O)CO[C@@H]1C[C@@H]2O [Paclitaxel]
[2]; [9]
  Step 6 Drugs that Modulate the Biomarker in Opposite Direction to Suicide: Paclitaxel

## golimumab
[2]; [10]
  TNF modulated by drug in opposite direction to suicide: golimumab,

## CN1CC2c3ccccc3Oc3ccc(Cl)cc3C2C1 (stereo not drawn) [asenapine]
[2]; [6]
  HTR2A modulated by drug in opposite direction to suicide: asenapine,
[2]; [3]
  HTR2A modulated by drug in opposite direction to suicide: asenapine,
[2]; [7]
  HTR2A modulated by drug in opposite direction to suicide: asenapine,
[2]; [8]
  HTR2A modulated by drug in opposite direction to suicide: asenapine,

## O=C1Cc2cc(CCN3CCN(c4nsc5ccccc45)CC3)c(Cl)cc2N1 [Ziprasidone]
[2]; [13]
  Step 6 Drugs that Modulate the Biomarker in Opposite Direction to Suicide: Ziprasidone

## CN1CCN(c2ccc(C(=O)Nc3n[nH]c4ccc(Cc5cc(F)cc(F)c5)cc34)c(NC3CCOCC3)c2)CC1 [entrectinib]
[2]; [3]
  NTRK3 modulated by drug in opposite direction to suicide: entrectinib,
[2]; E. Top Biomarkers in Depression, direction of change in suicidality (I) AP/2, (I) DE/1
  NTRK3 modulated by drug in opposite direction to suicide: entrectinib,
[2]; [5]
  NTRK3 modulated by drug in opposite direction to suicide: entrectinib,

## CNCCCN1c2ccccc2CCc2ccccc21 [desipramine]
[1]
  Drugs that Modulate the Biomarker in Opposite Direction to Suicide: desipramine

## CCc1nn(CCCN2CCN(c3cccc(Cl)c3)CC2)c(=O)n1CCOc1ccccc1 [Nefazodone]
[2]; [13]
  Step 6 Drugs that Modulate the Biomarker in Opposite Direction to Suicide: Nefazodone

## C/C=C(/C)C(=O)O[C@H]1C(C)=C[C@]23C(=O)[C@@H](C=C(CO)[C@@H](O)[C@]12O)[C@H]1[C@@H](C[C@H]3C)C1(C)C [Ingenol mebutate]
[2]; biomarker PRKCB (protein kinase C, beta), Table 20 CFE drug-evidence
  Drugs that modulate the biomarker PRKCB: Ingenol mebutate
[2]; biomarker PRKCI (protein kinase C, iota)
  Step 6 Drugs that Modulate the Biomarker in Opposite Direction to Suicide: Ingenol

## OCCOCCN1CCN(C2=Nc3ccccc3Sc3ccccc32)CC1 [quetiapine]
[1]
  Drugs that Modulate the Biomarker in Opposite Direction to Suicide: quetiapine

## CN[C@H]1CC[C@@H](c2ccc(Cl)c(Cl)c2)c2ccccc21 [Sertraline]
[2]; [10]
  TNF modulated by drug in opposite direction to suicide: Sertraline

## O=C1Cc2cc(CCN3CCN(c4nsc5ccccc45)CC3)c(Cl)cc2N1 [ziprasidone]
[1]
  Drugs that Modulate the Biomarker in Opposite Direction to Suicide: ziprasidone

## CC[C@@H](CO)NC(=O)[C@@H]1C=C2c3cccc4c3c(cn4C)C[C@H]2N(C)C1 [methysergide]
[1]
  Drugs that Modulate the Biomarker in Opposite Direction to Suicide: methysergide

## OCCN1CCN(CCCN2c3ccccc3C=Cc3ccccc32)CC1 [opipramol]
[2]; [6]
  HTR2A modulated by drug in opposite direction to suicide: opipramol,
[2]; [3]
  HTR2A modulated by drug in opposite direction to suicide: opipramol,
[2]; [7]
  HTR2A modulated by drug in opposite direction to suicide: opipramol,
[2]; [8]
  HTR2A modulated by drug in opposite direction to suicide: opipramol,

## Tocilizumab
[2]; biomarker IL6 (interleukin 6)
  Step 6 Drugs that Modulate the Biomarker in Opposite Direction to Suicide: Tocilizumab

## CN1CCC(=C2c3ccccc3CCc3cccnc32)CC1 [azatadine]
[1]
  Drugs that Modulate the Biomarker in Opposite Direction to Suicide: azatadine

## Fc1ccc([C@@H]2CCNC[C@H]2COc2ccc3c(c2)OCO3)cc1 [Paroxetine]
[2]; A. Top Universal Biomarkers, direction of change in suicidality (D), AP/4
  CCL28 modulated by drug in opposite direction to suicide: Paroxetine

## CN1CCN2c3ncccc3Cc3ccccc3C2C1 (stereo not drawn) [Mirtazapine]
[2]; [13]
  Step 6 Drugs that Modulate the Biomarker in Opposite Direction to Suicide: Mirtazapine

## O=C(CCCN1CCC(O)(c2ccc(Cl)cc2)CC1)c1ccc(F)cc1 [haloperidol, reference compound]
[2]; [3]
  BDNF modulated by drug in opposite direction to suicide: Haloperidol
[2]; [4]
  BDNF modulated by drug in opposite direction to suicide: Haloperidol
[2]; biomarker AGA (aspartyl glucosaminidase), Table 20 CFE drug-evidence
  Drugs that modulate the biomarker AGA: Haloperidol
[2]; biomarker AGA (aspartylglucosaminidase)
  Step 6 Drugs that Modulate the Biomarker in Opposite Direction to Suicide: Haloperidol
[2]; biomarker AKAP13 (A kinase (PRKA) anchor protein 13)
  Step 6 Drugs that Modulate the Biomarker in Opposite Direction to Suicide: Haloperidol
[2]; biomarker RIMS3 (regulating synaptic membrane exocytosis 3), Table 20 CFE drug-evidence
  Drugs that modulate the biomarker RIMS3: Haloperidol

## CN(C)CCC=C1c2ccccc2COc2ccccc21 [doxepin]
[1]
  Drugs that Modulate the Biomarker in Opposite Direction to Suicide: doxepin

## Recombinant-methionyl human leptin
[2]; biomarker LEPR (leptin receptor)
  Step 6 Drugs that Modulate the Biomarker in Opposite Direction to Suicide: Recombinant-

## COc1cc(C(C)=O)ccc1OCCCN1CCC(c2noc3cc(F)ccc23)CC1 [Iloperidone]
[2]; [6]
  HTR2A modulated by drug in opposite direction to suicide: Iloperidone,
[2]; [3]
  HTR2A modulated by drug in opposite direction to suicide: Iloperidone,
[2]; [7]
  HTR2A modulated by drug in opposite direction to suicide: Iloperidone,
[2]; [8]
  HTR2A modulated by drug in opposite direction to suicide: Iloperidone,

## infliximab
[2]; [10]
  TNF modulated by drug in opposite direction to suicide: infliximab,

## Cc1ccc(C23CNCC2C3)cc1 (stereo not drawn) [bicifadine]
[2]; [11]
  SLC6A4 modulated by drug in opposite direction to suicide: bicifadine,
[2]; [12]
  SLC6A4 modulated by drug in opposite direction to suicide: bicifadine,

## COc1ccc(C(CN(C)C)C2(O)CCCCC2)cc1 (stereo not drawn) [Venlafaxine]
[2]; [10]
  TNF modulated by drug in opposite direction to suicide: Venlafaxine

## CN1CCN(CCCN2c3ccccc3Sc3ccc(S(=O)(=O)N(C)C)cc32)CC1 [thioproperazine]
[2]; [6]
  HTR2A modulated by drug in opposite direction to suicide: thioproperazine,
[2]; [3]
  HTR2A modulated by drug in opposite direction to suicide: thioproperazine,
[2]; [7]
  HTR2A modulated by drug in opposite direction to suicide: thioproperazine,
[2]; [8]
  HTR2A modulated by drug in opposite direction to suicide: thioproperazine,

## etanercept
[2]; [10]
  TNF modulated by drug in opposite direction to suicide: , etanercept,

## OCCOCCN1CCN(C2=Nc3ccccc3Sc3ccccc32)CC1 [Quetiapine]
[2]; [14]
  IFNG modulated by drug in opposite direction to suicide: Quetiapine,
[2]; [13]
  Step 6 Drugs that Modulate the Biomarker in Opposite Direction to Suicide: Quetiapine

## O=C1CCc2ccc(OCCCCN3CCN(c4cccc(Cl)c4Cl)CC3)cc2N1 [Aripiprazole]
[2]; [14]
  IFNG modulated by drug in opposite direction to suicide: Aripiprazole
[2]; [13]
  Step 6 Drugs that Modulate the Biomarker in Opposite Direction to Suicide: Aripiprazole

## tocilizumab
[2]; B. Top Biomarkers in Males, direction of change in suicidality I, AP/2
  IL6 modulated by drug in opposite direction to suicide: tocilizumab,
